One data set addresses T1, MBNL1N-(CUG)4 RNA (Homo sapiens, UniProt Q9NR56).
T1 construct: An expression vector for MBNL1N (1-272 aminoacids) was obtained from Maurice S. Swanson; hexahis; made in house
T1 sequence (Q9NR56 1-272): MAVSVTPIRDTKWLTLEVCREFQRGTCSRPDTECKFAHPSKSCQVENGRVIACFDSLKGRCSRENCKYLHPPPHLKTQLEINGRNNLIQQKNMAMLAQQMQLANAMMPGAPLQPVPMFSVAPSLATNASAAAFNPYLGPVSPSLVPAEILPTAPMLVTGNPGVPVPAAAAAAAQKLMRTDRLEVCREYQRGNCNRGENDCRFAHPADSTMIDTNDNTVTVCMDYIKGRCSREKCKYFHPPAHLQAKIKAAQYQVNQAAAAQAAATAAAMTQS
In words: Inhibition of MBNL1N binding to (CUG)4 RNA in the presence of competitor tRNA. It counts as biochemical. On the procedure: (§1) RNA was labeled with [γ-^32P]ATP using T4 polynucleotide kinase (New England Biolabs). Labeled RNA (5 μL, 0.5 nM) was heated at 95° C. for 2 min and then placed on ice for 10 min and diluted to 125 μL in RNA storage buffer (66 mM NaCl, 6.7 mM MgCl2, and 27 mM Tris.HCl (pH 7.5). If required for the experiment, tRNA was added to the RNA solution to give a final concentration of approximately 8 μM. The protein (MBNL1N) was serially diluted in binding buffer (175 mM NaCl, 5 mM MgCl2, 20 mM Tris.HCl (pH 7.5), 1.25 mM BME, 12.5% glycerol, 2 mg/mL BSA, and 0.1 mg/mL heparin), and 5 μL of protein solution was added to 5 μL of RNA solution (Warf and Berglund, RNA, 2007, 13, 2238-2251). The reaction mixture was incubated at room temperature for 25 min and loaded onto a 6% polyacrylamide gel (80:1) at 4° C. The gels were run for 1 hour at 360V in 22.5 mM Tris-borate buffer (pH 8). Gels were visualized on a Molecular Dynamics Storm phosphorimager. The apparent Kd values were obtained by fitting fraction RNA bound versus protein concentration using the following equation: fraction bound=1/(1+(Kd/[P]T)). All binding measurements were performed with a greater than 10-fold excess of protein over RNA in each binding reaction used to determine the Kd so that [P] would be approximately equal to [P]total. […]

Another data set has as its target CTG repeats. As to the kind of experiment: Binding to CTG repeats. On the procedure: (§2) Isothermal titration calorimetry measurements were performed at 25° C. on a MicroCal VP-ITC (MicroCal, Inc., Northampton, Mass.). A standard experiment consisted of titrating 10 μL of a 500 μM ligand from a 250 μL syringe (rotating at 300 rpm) into a sample cell containing 1.42 mL of a 20 μM DNA/RNA solution. The duration of the injection was set to 24 s, and the delay between injections was 300 s. The initial delay prior to the first injection was 60 s. To derive the heat associated with each injection, the area under each isotherm (microcalories per second versus seconds) was determined by integration by the graphing program Origin 5.0 (MicroCal, Inc. Northampton, Mass.). […] In many cases, additional sites are not detected by Job plot analysis and likely represent low-affinity sites. […]
(§3) A cell sample (250 μL) of 0.2 μM a compound of interest (in 20 mM MOPS pH 7.0, 300 mM NaCl) was excited at 310 nm (excitation slit of 4 nm) and emission recorded between 470-530 nm (emission slit of 8 nm) monitoring the maximum at 495 nm. […] The sample was then allowed to equilibrate for 15 min and the fluorescence emission recorded. The decrease in fluorescence with increased DNA/RNA was monitored until the binding sites became saturated and the fluorescence change was no longer evident. […]

The nature of a further data set: Water solubility. It counts as physicochemical.
The target in another data set is T2, MBNL1-CUG interaction (Homo sapiens, UniProt Q9NR56).
T2 construct: An expression vector for MBNL1N (1-272 aminoacids) was obtained from Maurice S. Swanson; hexahis; made in house
T2 sequence (Q9NR56 1-272): T1 sequence (Q9NR56 1-272)
As to the kind of experiment: Electrophoretic mobility shift assay (EMSA) of inhibition of MBNL1-CUG interaction. Format: biochemical. On the procedure:
RNA was labeled with [γ-^32P]ATP using T4 polynucleotide kinase (New England Biolabs). Labeled RNA (5 μL, 0.5 nM) was heated at 95° C. for 2 min and then placed on ice for 10 min and diluted to 125 μL in RNA storage buffer (66 mM NaCl, 6.7 mM MgCl2, and 27 mM Tris.HCl (pH 7.5). If required for the experiment, tRNA was added to the RNA solution to give a final concentration of approximately 8 μM. The protein (MBNL1N) was serially diluted in binding buffer (175 mM NaCl, 5 mM MgCl2, 20 mM Tris.HCl (pH 7.5), 1.25 mM BME, 12.5% glycerol, 2 mg/mL BSA, and 0.1 mg/mL heparin), and 5 μL of protein solution was added to 5 μL of RNA solution (Warf and Berglund, RNA, 2007, 13, 2238-2251). The reaction mixture was incubated at room temperature for 25 min and loaded onto a 6% polyacrylamide gel (80:1) at 4° C. The gels were run for 1 hour at 360V in 22.5 mM Tris-borate buffer (pH 8). Gels were visualized on a Molecular Dynamics Storm phosphorimager. The apparent Kd values were obtained by fitting fraction RNA bound versus protein concentration using the following equation: fraction bound=1/(1+(Kd/[P]T)). All binding measurements were performed with a greater than 10-fold excess of protein over RNA in each binding reaction used to determine the Kd so that [P] would be approximately equal to [P]total.
The inhibition of the MBNL1N-RNA complex was investigated using the above procedure except that the small molecule was added to the RNA-protein complex after 25 min of incubation. The reaction mixture was incubated for an additional 10-15 minutes at room temperature (˜23° C.). The inhibition assays were performed in the presence of 10% DMSO. To determine IC50 values, the free RNA versus small molecule concentration was fit to the equation: B=ΔB exp((−0.69/IC50)C)+Bf. B is the volume of the free RNA band in the gel, ΔB is the difference between the volumes of the free RNA bands at the lowest and highest concentrations of small molecule (Bi−Bf), C is the concentration of the small molecule, and IC50 is the concentration of small molecule at which B=(½ΔB)+Bf. […]
For orientation: Mobility shift assays separate free from complexed probe on a gel.

A further data set deals with 3T3 mouse fibroblast. As to the kind of experiment: Toxicity / cell viability in 3T3 mouse fibroblasts. Format: cell-based.
For the next data set, the system named is MBNL1-CUG foci. In words: Confocal microscopy of MBNL1-CUG foci in HeLa cells transfected with GFP-MBNL1 and DMPK (CUG)960. The conditions noted are these: HeLa cells containing (CUG)960, confocal microscopy, preliminary results. Format: cell-based. From the text:
In various embodiments, the compounds described herein can form MBNL1-CUG foci inside the nucleus for cells containing expanded CUG repeats.

Data set [1] can be described thus: Tolerability in mice, intraperitoneal injection. It counts as in vivo. The settings on record: mouse, in vivo, ip, mice, 5-100 mg/kg tested, read-out: maximum tolerated dose. On the procedure:
(§4) The compounds are found to be non-toxic among different cell types tested, including DM1 patient cells and 3T3 mouse fibroblasts. In one experiment, three mice each were evaluated at 5, 10, 20 50, and 100 mg/kg of compound 1, given by intraperitoneal injection.

The next data set concerns mice. As to the kind of experiment: Tolerability in mice, intraperitoneal injection. Format: in vivo. The conditions noted are these: 100 mg/kg. On the procedure: as §4
In the next data set the target is T3, MBNL1N-(CUG)12 RNA (Homo sapiens, UniProt Q9NR56).
T3 construct: An expression vector for MBNL1N (1-272 aminoacids) was obtained from Maurice S. Swanson; hexahis; made in house
T3 sequence (Q9NR56 1-272): T1 sequence (Q9NR56 1-272)
As to the kind of experiment: Inhibition of MBNL1N binding to (CUG)12 RNA in the presence of competitor tRNA. Format: biochemical. On the procedure:
as §1

The next data set has as its target CUG repeats. As to the kind of experiment: Binding to CUG repeats. On the procedure: as §2, §3

By IC50 is commonly meant the concentration at which inhibition is half-maximal. A word on the Ki: it is a measure of affinity in units of concentration, obtained from inhibition or displacement. One may read the cell viability as a per cent measure of how many cells are alive, often set against a control. A low value points to more harm to the cells. As for `N=C(NCCCCNc1nc(N)nc(N)n1)c1ccc(C(=N)NCCCCNc2nc(N)nc(N)n2)cc1` [Compound 1, N^1,N^4-bis(4-((4,6-diamino-1,3,5-triazin-2-yl)amino)butyl)terephthalimidamide], the “Ki for inhibition of MBNL1N binding to (CUG)4 RNA” value on MBNL1N-(CUG)4 RNA is reported as “low micromolar”. Further, on CTG repeats, the “affinity for CTG repeats” value is “high nanomolar affinity”. The water solubility result in “Water solubility” was “improved water solubility”. The IC50 at MBNL1-CUG interaction (EMSA) amounted to 11 µM. Further, the Ki at MBNL1-CUG interaction (EMSA, read-out: inhibition constant (Ki) for MBNL1-CUG interaction) was found to be 0.177 µM. For the same molecule, on MBNL1-CUG interaction (same concentration (100 μM)), the “inhibitory ability in EMSA screen compared to other inhibitor compounds (such as compound 5)” value is given as “significantly improved inhibitory ability”. The “toxicity towards mouse fibroblasts” value in the data set with 3T3 mouse fibroblast was “non-toxic”. The cell viability in the data set with 3T3 mouse fibroblast (100 μM, 3-day incubation) is recorded as 100%. The “disruption of MBNL1-CUG foci in the nucleus” value in the data set with MBNL1-CUG foci is given as “significant disruption of foci”. In addition, the MTD in data set [1] worked out at 50 mg/kg. Also, the mice exhibiting neurotoxicity result in the data set on mice is “two of three”. Moreover, on MBNL1N-(CUG)12 RNA, the “Ki for inhibition of MBNL1N binding to (CUG)12 RNA” value is “low micromolar”. Also, the “affinity for CUG repeats” value at CUG repeats is “high nanomolar affinity”.
